Measured values reported in PubChem BioAssay (NCI).
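Five compound concentrations were applied to cells in 96-well plates for 48 hours; endpoints were derived by simple linear interpolation of the resulting dose-response curve. GI50 is the concentration that inhibits growth by half. TGI denotes the concentration required for complete inhibition of growth.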

Assays:
Assay in all cases: DTP human tumour cell line panel, 48 h
KM12 colon = tested on: KM12 colon
HCC-2998 colon = tested on: HCC-2998 colon
HOP-92 NSCLC = tested on: HOP-92 NSCLC
SN12C renal = tested on: SN12C renal
HOP-62 NSCLC = tested on: HOP-62 NSCLC
EKVX NSCLC = tested on: EKVX NSCLC
OVCAR-8 ovarian = tested on: OVCAR-8 ovarian
OVCAR-5 ovarian = tested on: OVCAR-5 ovarian
HCT-116 colon = tested on: HCT-116 colon
SR leukemia = tested on: SR leukemia
SF-539 CNS = tested on: SF-539 CNS
SNB-75 CNS = tested on: SNB-75 CNS
DU-145 prostate = tested on: DU-145 prostate
HT29 colon = tested on: HT29 colon
A498 renal = tested on: A498 renal
UACC-62 melanoma = tested on: UACC-62 melanoma
T-47D breast = tested on: T-47D breast
HL-60(TB) leukemia = tested on: HL-60(TB) leukemia
UO-31 renal = tested on: UO-31 renal
BT-549 breast = tested on: BT-549 breast
LOX IMVI melanoma = tested on: LOX IMVI melanoma
NCI-H226 lung = tested on: NCI-H226 lung
OVCAR-4 ovarian = tested on: OVCAR-4 ovarian
ACHN renal = tested on: ACHN renal
MDA-MB-435 = tested on: MDA-MB-435
SW-620 colon = tested on: SW-620 colon
TK-10 renal = tested on: TK-10 renal
SF-268 CNS = tested on: SF-268 CNS
OVCAR-3 ovarian = tested on: OVCAR-3 ovarian
SK-OV-3 ovarian = tested on: SK-OV-3 ovarian
SF-295 CNS = tested on: SF-295 CNS
PC-3 prostate = tested on: PC-3 prostate
NCI/ADR-RES ovarian = tested on: NCI/ADR-RES ovarian
NCI-H460 lung = tested on: NCI-H460 lung
786-0 renal = tested on: 786-0 renal
CCRF-CEM leukemia = tested on: CCRF-CEM leukemia
MOLT-4 leukemia = tested on: MOLT-4 leukemia
RPMI-8226 leukemia = tested on: RPMI-8226 leukemia
SK-MEL-5 melanoma = tested on: SK-MEL-5 melanoma
NCI-H522 lung = tested on: NCI-H522 lung
HS 578T breast = tested on: HS 578T breast
SNB-19 CNS = tested on: SNB-19 CNS
NCI-H23 lung = tested on: NCI-H23 lung
K-562 leukemia = tested on: K-562 leukemia
CAKI-1 renal = tested on: CAKI-1 renal
HCT-15 colon = tested on: HCT-15 colon
M14 melanoma = tested on: M14 melanoma
A549 NSCLC = tested on: A549 NSCLC
IGROV1 ovarian = tested on: IGROV1 ovarian
RXF 393 renal = tested on: RXF 393 renal
MALME-3M melanoma = tested on: MALME-3M melanoma
U251 CNS = tested on: U251 CNS
SK-MEL-28 melanoma = tested on: SK-MEL-28 melanoma
COLO 205 colon = tested on: COLO 205 colon
SK-MEL-2 melanoma = tested on: SK-MEL-2 melanoma
MDA-MB-231 breast = tested on: MDA-MB-231 breast
MCF7 breast = tested on: MCF7 breast
UACC-257 melanoma = tested on: UACC-257 melanoma

Compound: CCOC(=O)c1ccc2c(c1)[n+](=O)c(C(=O)C1CCCS1)c(C(F)(F)F)n2[O-] (stereo unspecified)
- GI50 (KM12 colon): 389 nM
- TGI (KM12 colon): 975 nM
- GI50 (HCC-2998 colon): 675 nM
- TGI (HCC-2998 colon): 2000 nM
- GI50 (HOP-92 NSCLC): 208 nM
- TGI (HOP-92 NSCLC): 1170 nM
- GI50 (SN12C renal): 448 nM
- TGI (SN12C renal): 1810 nM
- GI50 (HOP-62 NSCLC): 350 nM
- TGI (HOP-62 NSCLC): 820 nM
- GI50 (EKVX NSCLC): 1190 nM
- TGI (EKVX NSCLC): 2610 nM
- GI50 (OVCAR-8 ovarian): 239 nM
- TGI (OVCAR-8 ovarian): 597 nM
- GI50 (OVCAR-5 ovarian): 1420 nM
- TGI (OVCAR-5 ovarian): 2760 nM
- GI50 (HCT-116 colon): 173 nM
- TGI (HCT-116 colon): 340 nM
- GI50 (SR leukemia): 208 nM
- TGI (SR leukemia): 428 nM
- GI50 (SF-539 CNS): 722 nM
- TGI (SF-539 CNS): 2040 nM
- GI50 (SNB-75 CNS): 1130 nM
- TGI (SNB-75 CNS): 2330 nM
- GI50 (DU-145 prostate): 428 nM
- TGI (DU-145 prostate): 1050 nM
- GI50 (HT29 colon): 172 nM
- TGI (HT29 colon): 320 nM
- GI50 (A498 renal): 1550 nM
- TGI (A498 renal): 3070 nM
- GI50 (UACC-62 melanoma): 1150 nM
- TGI (UACC-62 melanoma): 2450 nM
- GI50 (T-47D breast): 493 nM
- TGI (T-47D breast): 1920 nM
- GI50 (HL-60(TB) leukemia): 258 nM
- TGI (HL-60(TB) leukemia): 643 nM
- GI50 (UO-31 renal): 156 nM
- TGI (UO-31 renal): 303 nM
- GI50 (BT-549 breast): 327 nM
- TGI (BT-549 breast): 1080 nM
- GI50 (LOX IMVI melanoma): 161 nM
- TGI (LOX IMVI melanoma): 308 nM
- GI50 (NCI-H226 lung): 835 nM
- TGI (NCI-H226 lung): 2650 nM
- GI50 (OVCAR-4 ovarian): 220 nM
- TGI (OVCAR-4 ovarian): 534 nM
- GI50 (ACHN renal): 172 nM
- TGI (ACHN renal): 315 nM
- GI50 (MDA-MB-435): 330 nM
- TGI (MDA-MB-435): 987 nM
- GI50 (SW-620 colon): 202 nM
- TGI (SW-620 colon): 490 nM
- GI50 (TK-10 renal): 288 nM
- TGI (TK-10 renal): 765 nM
- GI50 (SF-268 CNS): 197 nM
- TGI (SF-268 CNS): 458 nM
- GI50 (OVCAR-3 ovarian): 275 nM
- TGI (OVCAR-3 ovarian): 713 nM
- GI50 (SK-OV-3 ovarian): 1370 nM
- TGI (SK-OV-3 ovarian): 2670 nM
- GI50 (SF-295 CNS): 749 nM
- TGI (SF-295 CNS): 2070 nM
- GI50 (PC-3 prostate): 248 nM
- TGI (PC-3 prostate): 716 nM
- GI50 (NCI/ADR-RES ovarian): 271 nM
- TGI (NCI/ADR-RES ovarian): 797 nM
- GI50 (NCI-H460 lung): 236 nM
- TGI (NCI-H460 lung): 588 nM
- GI50 (786-0 renal): 406 nM
- TGI (786-0 renal): 1460 nM
- GI50 (CCRF-CEM leukemia): 233 nM
- TGI (CCRF-CEM leukemia): 550 nM
- GI50 (MOLT-4 leukemia): 237 nM
- TGI (MOLT-4 leukemia): 519 nM
- GI50 (RPMI-8226 leukemia): 702 nM
- TGI (RPMI-8226 leukemia): 2080 nM
- GI50 (SK-MEL-5 melanoma): 964 nM
- TGI (SK-MEL-5 melanoma): 2310 nM
- GI50 (NCI-H522 lung): 187 nM
- TGI (NCI-H522 lung): 443 nM
- GI50 (HS 578T breast): 2120 nM
- TGI (HS 578T breast): 6350 nM
- GI50 (SNB-19 CNS): 1250 nM
- TGI (SNB-19 CNS): 2570 nM
- GI50 (NCI-H23 lung): 830 nM
- TGI (NCI-H23 lung): 2200 nM
- GI50 (K-562 leukemia): 197 nM
- TGI (K-562 leukemia): 437 nM
- GI50 (CAKI-1 renal): 189 nM
- TGI (CAKI-1 renal): 429 nM
- GI50 (HCT-15 colon): 264 nM
- TGI (HCT-15 colon): 824 nM
- GI50 (M14 melanoma): 388 nM
- TGI (M14 melanoma): 1120 nM
- GI50 (A549 NSCLC): 274 nM
- TGI (A549 NSCLC): 764 nM
- GI50 (IGROV1 ovarian): 198 nM
- TGI (IGROV1 ovarian): 417 nM
- GI50 (RXF 393 renal): 603 nM
- TGI (RXF 393 renal): 1860 nM
- GI50 (MALME-3M melanoma): 581 nM
- TGI (MALME-3M melanoma): 1980 nM
- GI50 (U251 CNS): 169 nM
- TGI (U251 CNS): 315 nM
- GI50 (SK-MEL-28 melanoma): 1630 nM
- TGI (SK-MEL-28 melanoma): 3010 nM
- GI50 (COLO 205 colon): 217 nM
- TGI (COLO 205 colon): 459 nM
- GI50 (SK-MEL-2 melanoma): 1600 nM
- TGI (SK-MEL-2 melanoma): 3160 nM
- GI50 (MDA-MB-231 breast): 490 nM
- TGI (MDA-MB-231 breast): 1780 nM
- GI50 (MCF7 breast): 261 nM
- TGI (MCF7 breast): 738 nM
- GI50 (UACC-257 melanoma): 474 nM
- TGI (UACC-257 melanoma): 1600 nM
